For data set [1], the system named is Interleukin-8 (IL-8) release from human endothelial cells. The data set is described as follows: Inhibition of interleukin-8 (IL-8) release from human endothelial cells (HUVEC), IL-1β induced, ELISA. It is filed as cell-based. The conditions noted are these: IL-1β 10 ng/ml, 6 h, IL-8 by ELISA, read-out: IC50 (50% inhibition of IL-8 release relative to the maximum effect). An excerpt:
1.a) Inhibition of Interleukin-8 (IL-8) Release from Human Endothelial Cells
The expression of the human IL-8 gene is controlled by a diversity of regulatory and enhancer elements which are located above the promoter region of the gene. These elements comprise binding sites for transcription factors, and efficient transcription of the IL-8 gene is possible only through the interaction thereof with their DNA binding sites. The activity of the corresponding transcription factors can be induced by various stimuli (e.g. interleukin-1β, tumor necrosis factor-α) and can be modulated by various signal transduction pathways [H. Holtmann et al., Mol. Cell. Biol. 19, 6742-6753 (1999)].
For maximum expression of IL-8, the activity of two different transcription factors is essential: NF-κB and AP-1 [Y.-H. Chang et al., Exp. Cell Res. 278, 166-174 (2000)]. Cytokine-induced IL-8 synthesis can therefore be employed as test system for identifying and characterizing test substances which inhibit directly or indirectly the binding of NF-κB and AP-1 to their DNA binding sites.
Human umbilical cord endothelial cells (HUVEC) were purchased from CellSystems (St. Katharinen, Germany) and cultured in accordance with the supplier's recommendation in EGM-2 medium including growth additions (CellSystems, St. Katharinen, Germany) in 165 cm^2 tissue culture bottles. After the cell lawn has reached 60-80% confluence, the cells are detached from the base of the bottle by trypsin treatment, mechanically dissociated and seeded in a cell density of 5000 cells/well in 96-well microtiter plates (Corning, Wiesbaden, Germany). After 3 days, the culture medium is completely replaced by 170 μl of fresh medium per well. The cells are employed for the experiments on the following day.
To determine the inhibitory effect of the substances according to the invention on IL-8 release, they are firstly dissolved in a concentration ten times higher than the desired final concentration in the test in medium which comprises 1% DMSO. Subsequently, 20 μl of the substance solution are added per well. The formation and release of IL-8 is then induced by adding interleukin-1β (IL-1β, final concentration 10 ng/ml; Biosource GmbH, Solingen, Germany), and the cells are incubated in a CO2 incubator at 37° C. for 6 h. Thereafter, 150 μl of the cell supernatant are removed and frozen at −20° C. until the IL-8 content is measured by ELISA (Biosource GmbH, Solingen, Germany). To carry out the ELISA, the samples are thawed and are diluted 1:10, and the test is carried out in accordance with the manufacturer's instructions. The inhibitory effect of the compounds according to the invention on IL-8 release is ascertained by comparison with vehicle-treated cells.

A short description of data set [2]: Metabolic stability: in vitro incubation with liver microsomes. The data set is classed as in vitro ADME. The conditions noted are these: Mouse liver microsomes; for CL: calculated from half-life in the incubation mixture; for Fmax: maximum bioavailability calculated from half-life in the incubation mixture. How it is done: In Vitro Incubation with Liver Microsomes:
The hepatic microsomal stability is determined by incubating the substances according to the invention with liver microsomes from various species. The incubation concentration of the substances is kept as low as possible (preferably <1 μM), as is the concentration of the microsomal proteins in the test mixture (preferably 0.2 mg of microsomal protein per ml of incubation mixture). This procedure makes it possible to operate in the linear region of the Michaelis-Menten kinetics for most compounds. A sample is taken from the incubation mixture at various times (seven times in total) to determine the remaining substance concentration. The clearance (CL) and the maximum bioavailability (Fmax) of the test substance is calculated for the respective species from the half-life of the substance in the incubation mixture.
The experiments are carried out as described in detail in J. B. Houston and D. J. Carlile [Drug Metab. Rev. 29, 891-922 (1997)].

The test system of the next data set is H460 cells. The data set is described as follows: In vitro proliferation of tumor cells (CellTiter-Glo). It is filed as cell-based. The conditions noted are these: NCI-H460; H460 human lung carcinoma cells, 24 h after addition of substance. An excerpt: Various types of cancer are characterized by uncontrolled, excessive proliferation of various cell types, leading to the development of metastases and tumors. The possible use of the substances according to the invention for the treatment of hyperproliferative disorders can be investigated by their activity on the cell division rate of tumor cells in vitro. The indicator between antiproliferative effect in vitro and clinical antitumor effect is well established. The therapeutic utilizability of, for example, Taxol [Silvestrini et al., Stem Cells 11, 528-535 (1993)], Taxotere [Bissery et al., Anti Cancer Drugs 6, 339 (1995)] or topoisomerase inhibitors [Edelman et al., Cancer Chemother.
The tumor cell lines such as, for example, MDA-MB-231 cells (human breast adenocarcinoma cells), H460 cells (human lung carcinoma cells) or HCT-15 cells (human colon adenocarcinoma cells) are expanded in appropriate growth media (Sigma, Taufkirchen, Germany) recommended by the supplier (e.g. LGC Promochem, Wesel, Germany). One day before adding the compounds according to the invention, the cells are distributed in a density of 3000 cells/well in 100 μl of growth medium on black 96-well microtiter plates with clear base. On the day of addition of test substance, one microtiter plate for each tumor cell line is used to determine the initial cell count present in the wells. The substances according to the invention, diluted in growth medium and DMSO, are added to the related plates. The test substances are usually added in various concentrations starting with 10 μM final concentration in the assay. The DMSO concentration in the assay is 0.1%. Twenty-four hours after addition of the substance, the cell counts in each well are determined using the CellTiter-Glo® Luminescent Cell Viability-Tests (Promega GmbH, Mannheim, Germany). The test is carried out in accordance with the manufacturer's instructions and evaluated using a luminometer. To ascertain the antiproliferative activity of the compounds according to the invention, the cell counts determined before addition of substance in related plates are subtracted, and the percentage difference of the changes in the cell counts between substance-treated and vehicle-treated cells is determined. The relative activity of the different test substances is determined by a comparison of the concentrations which bring about 50% of their maximum effect (IC50).
A general note: In ATP-based viability assays light output follows the ATP content of the culture.

The source of these data is patent US8030347B2, “Cylopenta[b]benzofuran derivatives and the utilization thereof” (Bayer HealthCare AG, priority 2004, dated 2011).

pIC50: −log10 of the molar value.

Usually pIC50 stands for the negative decadic logarithm of the IC50, by convention in mol/L.

In the case of `CCOc1cc(OCC)c2c(c1)O[C@@]1(c3ccc(Cl)cc3)[C@H](c3ccccc3)C[C@@H](N)[C@@]21O` (racemic) [Example 15, (1R*,3S*,3aR*,8bS*)-1-Amino-3a-(4-chlorophenyl)-6,8-diethoxy-8b-hydroxy-3-phenyl-2,3,3a,8b-tetrahydrocyclopenta[b]benzofuran], the pIC50 in data set [1] was 6.78. In addition, in data set [2], the CL was <45 mL/min/kg and the Fmax was >50%.

As to `CN(C)CCOc1ccc2c(c1)O[C@@]1(c3ccc(Cl)cc3)[C@H](c3ccccc3)C[C@H](O)[C@@]21O` (racemic) [Example 32, (1S*,3S*,3aR*,8bS*)-3a-(4-Chlorophenyl)-6-(2-dimethylaminoethoxy)-3-phenyl-2,3,3a,8b-tetrahydrocyclopenta[b]benzofuran-1,8b-(1H)-diol], the negative logarithm of the IC50 (pIC50) in data set [1] was 6.95. Further, in data set [2], the CL is <45 mL/min/kg and the Fmax is >50%. This compound also had a negative logarithm of the IC50 (pIC50) in the data set with H460 cells of 9.30.

On to `O[C@H]1C[C@@H](c2ccccc2)[C@]2(c3ccc(Cl)cc3)Oc3cccc(OCCN4CCCC4)c3[C@]12O` (racemic) [Example 48, (1S*,3S*,3aR*,8bS*)-3a-(4-Chlorophenyl)-3-phenyl-8-(2-pyrrolidin-1-ylethoxy)-2,3,3a,8b-tetrahydrocyclopenta[b]benzofuran-1,8b-(1H)-diol], for which the negative logarithm of the IC50 (pIC50) in data set [1] is 6.67. Besides, in data set [2], the CL is <45 mL/min/kg and the Fmax was >50%. This compound also gave a negative logarithm of the IC50 (pIC50) in the data set on H460 cells of 7.32.

For the compound `CCOc1cc(OCC)c2c(c1)O[C@@]1(c3ccc(-c4ccsc4)cc3)[C@H](c3ccccc3)C[C@@H](O)[C@@]21O` (relative stereo) [Example 3, (1R*,3S*,3aR*,8bS*)-6,8-Diethoxy-3-phenyl-2,3,3a,8b-tetrahydro-3a-(4-thiophen-3-ylphenyl)-cyclopenta[b]benzofuran-1,8b-(1H)-diol], in data set [1], the pIC50 was 6.77. For the same compound, in data set [2], the CL was <45 mL/min/kg and the Fmax was >50%.

On to `CCOc1cc(OCC)c2c(c1)O[C@@]1(c3ccc(Br)cc3)[C@H](c3ccccc3)[C@@H](C(=O)N(C)C)C(=O)[C@@]21O` (relative stereo) [Example 12, (2R*,3S*,3aR*,8bR*)-3a-(4-Bromophenyl)-6,8-diethoxy-2-dimethylcarbamid-8b-hydroxy-3-phenyl-2,3,3a,8b-tetrahydrocyclopenta[b]benzofuran-1-one], for which the pIC50 in data set [1] is 6.33. Besides, in data set [2], the CL was 49.5 mL/min/kg and the Fmax is given as 45.1%.

With `COCCOc1cc(OCCOC)c2c(c1)O[C@@]1(c3ccc(Br)cc3)[C@H](c3ccccc3)C[C@@H](O)[C@@]21O` (relative stereo) [Example 18, (1R*,3S*,3aR*,8bS*)-6,8-Bis(2-methoxyethoxy)-3a-(4-bromophenyl)-3-phenyl-2,3,3a,8b-tetrahydrocyclopenta[b]benzofuran-1,8b-(1H)-diol], the pIC50 in data set [1] is 7.70. Moreover, in data set [2], the CL was <45 mL/min/kg and the Fmax is >50%.

On to `CN(C)CCOc1cc(OCCN(C)C)c2c(c1)O[C@@]1(c3ccc(Cl)cc3)[C@H](c3ccccc3)C[C@@H](O)[C@@]21O` (relative stereo) [Example 21, (1R*,3S*,3aR*,8bS*)-6,8-Bis(2-dimethylaminoethoxy)-3a-(4-chlorophenyl)-3-phenyl-2,3,3a,8b-tetrahydrocyclopenta[b]benzofuran-1,8b-(1H)-diol], for which, in the data set on H460 cells, the negative logarithm of the IC50 (pIC50) was 8.82.

Regarding `CN(C)CCOc1cc(OCCN(C)C)c2c(c1)O[C@@]1(c3ccc(Br)cc3)[C@H](c3ccccc3)C[C@H](O)[C@@]21O` (relative stereo) [Example 22, (1S*,3S*,3aR*,8bS*)-6,8-Bis(2-dimethylaminoethoxy)-3a-(4-bromophenyl)-3-phenyl-2,3,3a,8b-tetrahydrocyclopenta[b]benzofuran-1,8b-(1H)-diol], the pIC50 in data set [1] was 7.05. In data set [2], the CL was <45 mL/min/kg and the Fmax is listed as >50%.

In the case of `CCOc1ccc2c(c1)O[C@@]1(c3ccc(Cl)cc3)[C@H](c3ccccc3)C[C@H](O)[C@@]21O` (relative stereo) [Example 23, (1S*,3S*,3aR*,8bS*)-3a-(4-Chlorophenyl)-6-ethoxy-3-phenyl-2,3,3a,8b-tetrahydrocyclopenta[b]-benzofuran-1,8b-(1H)-diol], the pIC50 in data set [1] was 6.69; in the data set on H460 cells, 7.00.

`CN(C)CCOc1cccc2c1[C@]1(O)[C@@H](O)C[C@@H](c3ccccc3)[C@]1(c1ccc(Cl)cc1)O2` (relative stereo) [Example 49, (1S*,3S*,3aR*,8bS*)-3a-(4-Chlorophenyl)-8-(2-dimethylaminoethoxy)-3-phenyl-2,3,3a,8b-tetrahydrocyclopenta[b]benzofuran-1,8b-(1H)-diol] gave a negative logarithm of the IC50 (pIC50) with H460 cells of 7.53.
